Results as given in US20250026741A1, “INHIBITORS OF THE ONCOGENIC SHP2 PHOSPHATASE AND USES THEREOF” (Sanford Burnham Prebys Medical Discovery Institute, priority 2021, published 2025).

What was measured:
[1] = biological target: striatal-enriched tyrosine phosphatase (STEP) catalytic domain (Homo sapiens (Human), UniProt P54829); experiment: DiFMUP phosphatase inhibition assay, STEP; assay type: biochemical; conditions: for IC50: catalytic domain, DiFMUP at Km (4 μM); for fold selectivity for SHP2 over STEP: from IC50 values against catalytic domains
striatal-enriched tyrosine phosphatase (STEP) catalytic domain, sequence (P54829 280-565 limits assumed): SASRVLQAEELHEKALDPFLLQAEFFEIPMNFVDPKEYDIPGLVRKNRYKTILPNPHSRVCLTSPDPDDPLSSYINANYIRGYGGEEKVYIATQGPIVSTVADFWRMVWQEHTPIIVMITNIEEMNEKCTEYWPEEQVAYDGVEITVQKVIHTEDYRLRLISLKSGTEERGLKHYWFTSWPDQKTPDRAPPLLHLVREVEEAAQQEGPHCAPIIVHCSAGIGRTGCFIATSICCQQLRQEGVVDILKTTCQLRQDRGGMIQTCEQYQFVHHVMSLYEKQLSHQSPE
Description: Selectivity is one of the biggest challenges in PTP inhibitor development. […] Similar to SHP2, we adapted a 384-well plate format DiFMUP assay for recombinant PTP1B and STEP and performed Michaelis-Menten experiments to determine DiFMUP Km values for each phosphatase. IC50 values of our inhibitors for PTP1B and STEP were determined in 10-point dose-response assays with DiFMUP used at the concentration corresponding to the respective Km value. […] Other inhibitors with good relative selectivity for SHP2 included #02 (13-fold selective over PTP1B; 73-fold selective over STEP) and #05 (5-fold selective over PTP1B; >71-fold selective over STEP).
(§1) SHP2 inhibitors were tested at room temperature (RT) in a 384-well plate format standard phosphatase fluorescence intensity assay using DiFMUP (Invitrogen/Thermo Fisher Scientific, Carlsbad, CA) as a substrate and a total reaction volume of 25 μL. SHP2 inhibitors or vehicle (DMSO) were spotted in triplicate into a black Greiner FLUOTRAC™ 200 384-well microplate (#781076, Greiner) for a 10-point dose-response assay using an Echo®555 Liquid Handler (Labcyte, Inc., San Jose, CA). PTP working solutions were prepared at a 0.625 nM concentration (for a final concentration of 0.5 nM) in buffer containing 50 mM Bis-Tris pH 6.0, 50 mM NaCl, 5 mM DTT, and 0.01% Tween® 20. Prior to the assay, a dually phosphorylated insulin receptor substrate 1 (IRS-1) peptide [625 nM (500 nMfinal) (30)] was added to full-length WT SHP2 working solutions and incubated for 20 min. DiFMUP working solutions at 5× final concentration were prepared in 50 mM Bis-Tris pH 6.0, 50 mMNaCl, and 0.01% Tween 20. 20 μL of PTP working solution was dispensed into the microplate and incubated with inhibitor for 20 min at RT. […] The reaction was initiated by addition of 5 μL DiFMUP working solutions. Fluorescence intensity was measured in kinetic mode (every minute for 7 or 10 min) using a Tecan Spark® Multimode Microplate Reader (Tecan, Groedig, Austria) with an excitation wavelength of 360 nm and an emission wavelength of 460 nm. The initial rates were determined from the linear progression curves of the PTP reaction. The nonenzymatic hydrolysis of the substrate was corrected by using a control without addition of enzyme. IC50 values were calculated from the corrected initial rates by nonlinear regression using the program GraphPad Prism (GraphPad Software, Inc., San Diego, CA) Version 8. Dose-response inhibition assays of SHP2cat using the substrate OMFP were performed similarly as described above for DiFMUP. OMFP was used at a concentration corresponding to its Km value for SHP2cat (50 μM final). Fluorescence intensity was measured in kinetic mode (every minute for 10 min) using a Tecan Spark Multimode Microplate Reader with an excitation wavelength of 485 nm and an emission wavelength of 535 nm. Initial rates were determined and IC50 vales calculated as described above.

[2] = biological target: full-length SHP2 wild-type (SHP2-WT) (Homo sapiens (Human), UniProt Q06124); experiment: DiFMUP fluorescence intensity phosphatase inhibition assay, SHP2-WT activated with IRS-1 peptide; assay type: biochemical; conditions: DiFMUP at Km (60 μM), IRS-1 peptide activated
full-length SHP2 wild-type (SHP2-WT), sequence (Q06124 whole entry, other chains not shown, the tested form may be a part): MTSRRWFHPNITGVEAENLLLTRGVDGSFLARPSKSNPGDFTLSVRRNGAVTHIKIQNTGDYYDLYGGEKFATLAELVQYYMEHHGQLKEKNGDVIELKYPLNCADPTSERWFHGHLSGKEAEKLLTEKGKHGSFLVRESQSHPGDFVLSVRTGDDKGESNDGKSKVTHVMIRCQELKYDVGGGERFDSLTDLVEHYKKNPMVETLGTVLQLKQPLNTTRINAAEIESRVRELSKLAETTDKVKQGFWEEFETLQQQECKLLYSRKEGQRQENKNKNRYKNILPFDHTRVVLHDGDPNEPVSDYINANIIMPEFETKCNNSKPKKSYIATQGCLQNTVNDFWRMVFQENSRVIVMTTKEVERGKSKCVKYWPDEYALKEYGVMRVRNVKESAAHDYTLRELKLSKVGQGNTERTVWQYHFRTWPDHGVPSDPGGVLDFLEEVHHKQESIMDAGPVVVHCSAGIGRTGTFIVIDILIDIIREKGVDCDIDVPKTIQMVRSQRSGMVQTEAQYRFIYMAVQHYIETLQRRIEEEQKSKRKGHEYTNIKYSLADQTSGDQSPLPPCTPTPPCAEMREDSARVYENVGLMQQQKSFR
Description: To test the synthesized compounds for their potential to inhibit SHP2 activity, a fluorescence intensity-based assay using 6,8-difluoro-4-methylumbelliferyl phosphate (DiFMUP) as the substrate was adapted for three recombinant SHP2 constructs: 1) the SHP2 catalytic domain (SHP2cat; residues 248-527), 2) the full-length SHP2-E76K oncogenic mutant, and 3) the full-length SHP2 wild-type (SHP2-WT). The recombinant SHP2 proteins were expressed and purified. A dually phosphorylated peptide derived from the insulin receptor substrate 1 (IRS-1) served as a surrogate binding protein and was used to activate SHP2-WT. […] Michaelis-Menten experiments to determine the DiFMUP Michaelis-Menten constant (Kmn) for each SHP2 construct were performed and yielded the following values: SHP2-WT, Km=60 μM; SHP2-E76K, Km=20 μM; SHP2cat, Km=20 μM. Relative maximum rates (Vmax) of the DiFMUP reactions were as follows: SHP2-WT, Vmax=871 AFU/min; SHP2-E76K, Vmax, =2730 AFU/min; SHP2cat, Vmax=2912 AFU/min. IC50 values for each compound were determined from initial rates in 10-point dose-response assays using DiFMUP at a concentration corresponding to its Km value for the respective SHP2 construct.
as §1

`Nc1ccc(NC(=O)c2cc(-c3ccc(/C=C4\Sc5ccccc5C4=O)o3)ccc2O)cc1` [#01, (Z)—N-(4-Aminophenyl)-2-hydroxy-5-(5-((3-oxobenzo[b]thiophen-2(3H)-ylidene)methyl)furan-2-yl)benzamide] was tested, and the IC50 [1] was 44 µM, the “fold selectivity for SHP2 over STEP” value [1] was 200 fold and the IC50 [2] was 1 to 20 µM.

For `O=C(Nc1ccccc1)c1cc(-c2ccc(/C=C3\Sc4ccccc4C3=O)o2)ccc1O` [#02, (Z)-2-hydroxy-5-(5-((3-oxobenzo[b]thiophen-2(3H)-ylidene)methyl)furan-2-yl)-N-phenylbenzamide], the IC50 [1] was 53 µM, the “fold selectivity for SHP2 over STEP” value [1] was 73 fold and the IC50 [2] was 1 to 20 µM.

`N#Cc1cc(-c2ccc(/C=C3\Sc4ccccc4C3=O)o2)ccc1O` [#05, (Z)-2-Hydroxy-5-(5-((3-oxobenzo[b]thiophen-2(3H)-ylidene)methyl)furan-2-yl)benzonitrile] gave an IC50 [1] greater than 100 µM and an IC50 [2] of 1 to 20 µM.
